Assay results taken from US10208089B2, “Modulation of complement activity” (priority 2014, dated 2019).
Starred links: 1 amine or outer side, 2 acyl side, 3 side chain; linkers in the order of their positions; H or OH if unused. Positions of bridges follow the written chain, without caps; N, C: chain ends. Non-standard residues stand in square brackets, D forms with d. Residues, ends and D or L forms follow the SMILES beside them. Trp(7-aza) = N[C@@H](Cc1c[nH]c2ncccc12)C(=O)O; mXylylene = c1cc(C[*:1])cc(C[*:2])c1; Phg = N[C@H](C(=O)O)c1ccccc1; Tle = CC(C)(C)[C@H](N)C(=O)O; NMeS = CN[C@@H](CO)C(=O)O; Nva = CCC[C@H](N)C(=O)O

Target: C5 (Homo sapiens, UniProt P01031)
Test: Human hemolysis assay (RBC lysis assay using complete human sera)
Format: cell-based
Set-up: with complete human sera (Complement Technology, Tyler Tex.) and polypeptides; tissue Complement Technology, Tyler Tex; host or cells: complete human serum
Conditions: 7-azatryptophan variant polypeptides of R3002; inhibition of red blood cell lysis

Chain of C5 (P01031 19-1676): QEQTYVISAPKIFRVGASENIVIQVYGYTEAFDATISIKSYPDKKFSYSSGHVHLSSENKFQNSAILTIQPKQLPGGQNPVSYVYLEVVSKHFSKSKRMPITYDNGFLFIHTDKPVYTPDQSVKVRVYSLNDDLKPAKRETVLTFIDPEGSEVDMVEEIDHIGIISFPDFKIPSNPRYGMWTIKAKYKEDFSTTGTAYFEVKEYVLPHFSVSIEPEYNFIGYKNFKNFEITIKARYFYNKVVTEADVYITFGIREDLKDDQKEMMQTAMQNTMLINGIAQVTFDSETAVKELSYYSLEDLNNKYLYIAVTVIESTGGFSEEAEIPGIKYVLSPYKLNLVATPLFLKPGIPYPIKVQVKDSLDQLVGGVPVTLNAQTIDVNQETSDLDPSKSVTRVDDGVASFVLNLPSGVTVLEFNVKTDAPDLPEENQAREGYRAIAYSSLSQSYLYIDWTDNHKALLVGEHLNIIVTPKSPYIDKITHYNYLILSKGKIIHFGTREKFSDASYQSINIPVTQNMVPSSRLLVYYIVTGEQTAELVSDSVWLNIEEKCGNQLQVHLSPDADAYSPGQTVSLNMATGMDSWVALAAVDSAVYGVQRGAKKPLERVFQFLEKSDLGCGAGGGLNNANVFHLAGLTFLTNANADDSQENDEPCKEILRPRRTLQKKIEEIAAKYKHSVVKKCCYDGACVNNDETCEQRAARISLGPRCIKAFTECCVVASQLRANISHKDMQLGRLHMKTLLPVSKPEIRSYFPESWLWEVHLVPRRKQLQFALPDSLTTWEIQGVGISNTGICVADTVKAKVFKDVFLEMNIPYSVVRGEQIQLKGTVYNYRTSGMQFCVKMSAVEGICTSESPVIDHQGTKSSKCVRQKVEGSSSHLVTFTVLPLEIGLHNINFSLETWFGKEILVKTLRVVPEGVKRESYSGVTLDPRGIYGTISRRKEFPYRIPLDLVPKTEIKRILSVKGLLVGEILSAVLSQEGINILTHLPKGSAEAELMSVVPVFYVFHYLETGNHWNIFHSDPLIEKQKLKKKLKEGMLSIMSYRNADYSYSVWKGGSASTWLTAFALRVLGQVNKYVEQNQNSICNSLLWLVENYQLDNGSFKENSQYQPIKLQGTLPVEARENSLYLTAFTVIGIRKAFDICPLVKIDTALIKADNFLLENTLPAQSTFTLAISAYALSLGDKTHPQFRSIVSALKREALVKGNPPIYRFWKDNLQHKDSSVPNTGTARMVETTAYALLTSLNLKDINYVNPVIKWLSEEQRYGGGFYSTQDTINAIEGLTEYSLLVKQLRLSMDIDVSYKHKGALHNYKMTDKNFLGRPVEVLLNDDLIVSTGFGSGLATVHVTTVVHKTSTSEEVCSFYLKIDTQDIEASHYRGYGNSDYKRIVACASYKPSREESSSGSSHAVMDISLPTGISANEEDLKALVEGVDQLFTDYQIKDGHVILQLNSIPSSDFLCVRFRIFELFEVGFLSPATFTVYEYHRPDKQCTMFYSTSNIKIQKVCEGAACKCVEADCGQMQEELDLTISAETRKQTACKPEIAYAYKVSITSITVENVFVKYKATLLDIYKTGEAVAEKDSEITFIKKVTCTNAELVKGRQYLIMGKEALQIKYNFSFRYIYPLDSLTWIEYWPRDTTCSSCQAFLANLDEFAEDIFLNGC

CCC[C@H](NC(=O)[C@@H](NC(=O)[C@@H]1CCCN1C(=O)[C@H](Cc1ccc(O)cc1)NC(=O)[C@H](CCC(=O)O)NC(=O)[C@@H]1CSCc2cccc(c2)CSC[C@H](NC(=O)[C@H](CCC)NC(C)=O)C(=O)N[C@@H](Cc2ccc(O)cc2)C(=O)N[C@@H](CCC(=O)O)C(=O)N[C@@H](CC(N)=O)C(=O)N[C@@H](C(C)(C)C)C(=O)N[C@@H](Cc2ccc(O)cc2)C(=O)N1)c1ccccc1)C(N)=O [Compound R3017, [mXylyl(2,8)]Ac-Nvl-C-Y-E-N-Tbg-Y-C-E-Y-P-Phg-Nvl-NH2] (Ac-[Nva]CYEN[Tle]YCEYP[Phg][Nva]-NH2; linker 2-8 via mXylylene) gave an IC50 of over 100 µM.

Same assay, conditions: 7-azatryptophan variant polypeptides of R3008; inhibition of red blood cell lysis

CCC[C@H](NC(=O)[C@@H]1CSCc2cccc(c2)CSC[C@H](NC(=O)[C@H](CCC)NC(C)=O)C(=O)N[C@@H](c2ccccc2)C(=O)N[C@@H]([C@@H](C)O)C(=O)N[C@@H](C)C(=O)N[C@@H](CCC(=O)O)C(=O)N[C@@H](Cc2ccc(O)cc2)C(=O)N(C)[C@@H](CO)C(=O)N[C@@H](Cc2c[nH]cn2)C(=O)N1)C(N)=O [Compound R3034, [mXylyl(2,10)]Ac-Nvl-C-Phg-T-A-E-Y-(N-Me)S-H-C-Nvl-NH2] (Ac-[Nva]C[Phg]TAEY[NMeS]HC[Nva]-NH2; linker 2-10 via mXylylene) gave an IC50 of over 50 µM.

Same assay, conditions: inhibition of lysis of antibody-sensitized sheep erythrocytes, complete human sera

CCC[C@H](NC(=O)[C@@H](NC(=O)[C@@H]1CCCN1C(=O)[C@H](Cc1ccc(O)cc1)NC(=O)[C@H](CCC(=O)O)NC(=O)[C@@H]1CSCc2cccc(c2)CSC[C@H](NC(=O)[C@H](CCC)NC(C)=O)C(=O)N[C@@H](Cc2ccc(O)cc2)C(=O)N[C@@H](CCC(=O)O)C(=O)N[C@@H](CC(N)=O)C(=O)N[C@@H](C(C)(C)C)C(=O)N[C@@H](Cc2ccc(O)cc2)C(=O)N1)c1ccccc1)C(N)=O [Compound R3017, [mXylyl(2,8)]Ac-Nvl-C-Y-E-N-Tbg-Y-C-E-Y-P-Phg-Nvl-NH2] (Ac-[Nva]CYEN[Tle]YCEYP[Phg][Nva]-NH2; linker 2-8 via mXylylene) and CCC[C@H](NC(=O)[C@@H](NC(=O)[C@@H]1CCCN1C(=O)[C@@H]1CSCc2cccc(c2)CSC[C@H](NC(=O)[C@H](CCC)NC(C)=O)C(=O)N[C@@H](Cc2ccc(O)cc2)C(=O)N[C@@H](CCC(=O)O)C(=O)N[C@@H](CC(N)=O)C(=O)N[C@@H](C(C)(C)C)C(=O)N[C@@H](Cc2ccc(O)cc2)C(=O)N[C@@H](Cc2c[nH]c3ncccc23)C(=O)N[C@@H](CCC(=O)O)C(=O)N1)c1ccccc1)C(N)=O [Compound R3018, [mXylyl(2,10)]Ac-Nvl-C-Y-E-N-Tbg-Y-azaTrp-E-C-P-Phg-Nvl-NH2] (Ac-[Nva]CYEN[Tle]Y[Trp(7-aza)]ECP[Phg][Nva]-NH2; linker 2-10 via mXylylene) cannot be ordered by IC50: over 100 µM for the first, over 5.73 µM for the second.

Going from CCC[C@H](NC(C)=O)C(=O)N[C@H]1CSCc2cccc(c2)CSC[C@@H](C(N)=O)NC(=O)[C@H](CCC)NC(=O)[C@H](c2ccccc2)NC(=O)[C@@H]2CCCN2C(=O)[C@H](Cc2ccc(O)cc2)NC(=O)[C@H](CCC(=O)O)NC(=O)[C@H](Cc2c[nH]c3ncccc23)NC(=O)[C@H](Cc2ccc(O)cc2)NC(=O)[C@H](C(C)(C)C)NC(=O)[C@H](CC(N)=O)NC(=O)[C@H](CCC(=O)O)NC(=O)[C@H](Cc2ccc(O)cc2)NC1=O [Compound R3019, [mXylyl(2,14)]Ac-Nvl-C-Y-E-N-Tbg-Y-azaTrp-E-Y-P-Phg-Nvl-C-NH2] (Ac-[Nva]CYEN[Tle]Y[Trp(7-aza)]EYP[Phg][Nva]C-NH2; linker 2-14 via mXylylene) to CCC[C@H](NC(=O)[C@@H]1CSCc2cccc(c2)CSC[C@H](NC(=O)[C@H](CCC)NC(C)=O)C(=O)N[C@@H](c2ccccc2)C(=O)N[C@@H](C)C(=O)N[C@@H](Cc2c[nH]c3ncccc23)C(=O)N[C@@H](CCC(=O)O)C(=O)N[C@@H](Cc2ccc(O)cc2)C(=O)N(C)[C@@H](CO)C(=O)N[C@@H](Cc2c[nH]cn2)C(=O)N1)C(N)=O [Compound R3033, [mXylyl(2,10)]Ac-Nvl-C-Phg-A-azaTrp-E-Y-(N-Me)S-H-C-Nvl-NH2] (Ac-[Nva]C[Phg]A[Trp(7-aza)]EY[NMeS]HC[Nva]-NH2; linker 2-10 via mXylylene), the IC50 falls from 1.32 µM to 0.131 µM (10-fold). The second is the more potent here.

Going from CSCC[C@H](N)C(=O)N[C@H]1CSCc2cccc(c2)CSC[C@@H](C(=O)N[C@@H](CCC(=O)O)C(=O)N[C@H](C(=O)N[C@@H](CCCNC(=N)N)C(=O)N[C@@H](Cc2c[nH]c3ccccc23)C(=O)N[C@@H](CCC(=O)O)C(=O)N[C@@H](Cc2ccc(O)cc2)C(N)=O)C(C)C)NC(=O)[C@H](Cc2ccc(O)cc2)NC(=O)[C@H](CCCNC(=N)N)NC(=O)[C@H](CCC(=O)O)NC(=O)[C@H](CO)NC1=O [Compound R3020, [mXylyl(2,7)]M-C-S-E-R-Y-C-E-V-R-W-E-Y-NH2] (H-MCSERYCEVRWEY-NH2; linker 2-7 via mXylylene) to CCC[C@H](NC(=O)[C@@H]1CSCc2cccc(c2)CSC[C@H](NC(=O)[C@H](C)NC(C)=O)C(=O)N[C@@H](c2ccccc2)C(=O)N[C@@H]([C@@H](C)O)C(=O)N[C@@H](Cc2c[nH]c3ncccc23)C(=O)N[C@@H](CCC(=O)O)C(=O)N[C@@H](Cc2ccc(O)cc2)C(=O)N(C)[C@@H](CO)C(=O)N[C@@H](Cc2c[nH]cn2)C(=O)N1)C(N)=O [Compound R3031, [mXylyl(2,10)]Ac-A-C-Phg-T-azaTrp-E-Y-(N-Me)S-H-C-Nvl-NH2] (Ac-AC[Phg]T[Trp(7-aza)]EY[NMeS]HC[Nva]-NH2; linker 2-10 via mXylylene), the IC50 rises from 0.0246 µM to 1.09 µM (44-fold). The first is the more potent here.

CCC[C@H](NC(=O)[C@@H]1CCCN1C(=O)[C@H](CCC)NC(=O)[C@H](CS)NC(=O)[C@H](Cc1c[nH]cn1)NC(=O)[C@H](CO)N(C)C(=O)[C@H](Cc1ccc(O)cc1)NC(=O)[C@H](CCC(=O)O)NC(=O)[C@H](Cc1c[nH]c2ncccc12)NC(=O)[C@@H](NC(=O)[C@@H](NC(=O)[C@H](CS)NC(=O)[C@H](CCC)NC(C)=O)c1ccccc1)[C@@H](C)O)C(N)=O [Compound R3022, Ac-Nvl-C-Phg-T-azaTrp-E-Y-(N-Me)S-H-C-Nvl-P-Nvl-NH2] (Ac-[Nva]C[Phg]T[Trp(7-aza)]EY[NMeS]HC[Nva]P[Nva]-NH2) and CCC[C@H](NC(=O)[C@@H](NC(=O)[C@@H]1CCCN1C(=O)[C@H](Cc1ccc(O)cc1)NC(=O)[C@H](CCC(=O)O)NC(=O)[C@H](Cc1c[nH]c2ncccc12)NC(=O)[C@H](Cc1ccc(O)cc1)NC(=O)[C@@H](NC(C)=O)C(C)(C)C)c1ccccc1)C(N)=O [Compound R3028, Ac-Tbg-Y-azaTrp-E-Y-P-Phg-Nvl-NH2] (Ac-[Tle]Y[Trp(7-aza)]EYP[Phg][Nva]-NH2) cannot be ordered by IC50: over 10.2 µM for the first, over 10 µM for the second.

CCC[C@H](NC(=O)[C@@H]1CSCc2cccc(c2)CSC[C@H](NC(=O)[C@H](CCC)NC(C)=O)C(=O)N[C@@H](C)C(=O)N[C@@H]([C@@H](C)O)C(=O)N[C@@H](Cc2c[nH]c3ncccc23)C(=O)N[C@@H](CCC(=O)O)C(=O)N[C@@H](Cc2ccc(O)cc2)C(=O)N(C)[C@@H](CO)C(=O)N[C@@H](Cc2c[nH]cn2)C(=O)N1)C(N)=O [Compound R3032, [mXylyl(2,10)]Ac-Nvl-C-A-T-azaTrp-E-Y-(N-Me)S-H-C-Nvl-NH2] (Ac-[Nva]CAT[Trp(7-aza)]EY[NMeS]HC[Nva]-NH2; linker 2-10 via mXylylene) and CCC[C@H](NC(=O)[C@@H]1CSCc2cccc(c2)CSC[C@H](NC(=O)[C@H](CCC)NC(C)=O)C(=O)N[C@@H](c2ccccc2)C(=O)N[C@@H]([C@@H](C)O)C(=O)N[C@@H](Cc2c[nH]c3ncccc23)C(=O)N[C@@H](C)C(=O)N[C@@H](Cc2ccc(O)cc2)C(=O)N(C)[C@@H](CO)C(=O)N[C@@H](Cc2c[nH]cn2)C(=O)N1)C(N)=O [Compound R3035, [mXylv1(2,10)]Ac-Nvl-C-Phg-T-azaTrp-A-Y-(N-Me)S-H-C-Nvl-NH2] (Ac-[Nva]C[Phg]T[Trp(7-aza)]AY[NMeS]HC[Nva]-NH2; linker 2-10 via mXylylene) cannot be ordered by IC50: over 10 µM for the first, over 50 µM for the second.

CCC[C@H](NC(=O)[C@@H]1CSCc2cccc(c2)CSC[C@H](NC(=O)[C@H](CCC)NC(C)=O)C(=O)N[C@@H](c2ccccc2)C(=O)N[C@@H]([C@@H](C)O)C(=O)N[C@@H](C)C(=O)N[C@@H](CCC(=O)O)C(=O)N[C@@H](Cc2ccc(O)cc2)C(=O)N(C)[C@@H](CO)C(=O)N[C@@H](Cc2c[nH]cn2)C(=O)N1)C(N)=O [Compound R3034, [mXylyl(2,10)]Ac-Nvl-C-Phg-T-A-E-Y-(N-Me)S-H-C-Nvl-NH2] (Ac-[Nva]C[Phg]TAEY[NMeS]HC[Nva]-NH2; linker 2-10 via mXylylene) gave an IC50 of over 50 µM.
